Assay results taken from patent publication US20080227655A1, “Assessment of effect of an agent on a human biological condition using rodent gene expression panels” (priority 2006, published 2008).
Several values for one entry are separate records, joined by “and”; a condition that tells them apart may be missing. Identical values can stand only once.

Test system: custom murine 40-gene Precision Profile for Rheumatoid Arthritis, whole blood
Assay: KRN (K/BxN) serum transfer induced arthritis model, whole blood gene expression by QPCR, vehicle or dexamethasone treatment
Type: in vivo, female BALB/c mice
Conditions: for ABCA1_M Normalized CT Value (Delta CT) / APAF1_M Normalized CT Value (Delta CT) / ARG2_M Normalized CT Value (Delta CT) / CASP1_M Normalized CT Value (Delta CT) / CASP3_M Normalized CT Value (Delta CT) / CCR3_M Normalized CT Value (Delta CT) / CD3Z_M Normalized CT Value (Delta CT) / CD8A_M Normalized CT Value (Delta CT) / CD14_M Normalized CT Value (Delta CT) / CD19_M Normalized CT Value (Delta CT) / CD86_M Normalized CT Value (Delta CT) / CSPG2_M Normalized CT Value (Delta CT) / F3_M Normalized CT Value (Delta CT) / HMOX1_M Normalized CT Value (Delta CT) / HSPA1A—M Normalized CT Value (Delta CT) / ICAM1—M Normalized CT Value (Delta CT) / IFI16—M Normalized CT Value (Delta CT) / IL1B_M Normalized CT Value (Delta CT) / IL10_M Normalized CT Value (Delta CT): whole blood
Description: Whole blood gene expression changes were evaluated in vehicle control and drug-treated murine subjects across two murine models of arthritis according to the following arthritis models:
KRN Transgenic Mouse (K/B×N): K/B×N serum from transgenic mouse used to induce arthritis in female BALB/c mice (n=54). Collagen Induced Arthritis (CIA): Bovine type II collagen used to induce arthritis in male DBA/1 mice (n=54).
In addition, naïve, untreated animal groups at baseline and terminal day were included to control for potential age-related changes in gene expression over the extended study periods. Animal groups, time-points, and treatment schedules are summarized in Tables 20A and 20B, respectively.
Whole blood samples from animals were collected by retro-orbital bleed at selected time-points in accordance with the arthritis study schemas described in […], and transferred into sample collection tubes containing a 1.5× lysis solution and RPMI. Samples were processed into total RNA and cDNA. […] It was anticipated from these murine models would provide a better understanding of the relevant molecular response of arthritis induction and their potential correlation to the human disease condition.
Normal murine subject reference values (represented as normalized Ct or ΔCt values) were established for male DBA/1 mice (n=6 for the CIA study arm) and female BALB/c mice (n=6 for the KRN study arm). In both arms of the study, gene expression response of normal (naïve, non-immunized and untreated) murine subjects were evaluated in groups of 6 each at day 0 and day 60 for the CIA study arm, and at day 0 and day 21 for the KRN study arm (see Tables 20A and 20B).
Gene expression responses for the arthritis-induced murine model were evaluated for untreated mice at day 3 and vehicle-treated mice at days 7, 14 and 21 to characterize disease progression.

[1] = KRN Day 14, Dex-treated, individual murine subject
[2] = KRN Day 14, Dex-treated, individual murine subject, listed as Dex
[3] = KRN Day 14 Dex, individual mouse, listed as Dex
[4] = KRN Day 21, Dex-treated, group Average
[5] = KRN Day 21, Dex-treated, individual murine subject, listed as Dex
[6] = KRN Day 21 Dex, individual mouse, listed as Dex

C[C@@H]1C[C@H]2[C@@H]3CCC4=CC(=O)C=C[C@]4(C)[C@@]3(F)[C@@H](O)C[C@]2(C)[C@@]1(O)C(=O)CO [Dexamethasone]
Normalized CT Value (Delta CT) TLR4_M [1]: 18.49
Normalized CT Value (Delta CT) TNFSF5—M [1]: 19.61
Normalized CT Value (Delta CT) TNF_M [1]: 20.58
Normalized CT Value (Delta CT) VEGF_M [1]: 20.76
Normalized CT Value (Delta CT) IL1RAP_M [2]: 18.49 and 19.00 and 18.48 and 18.13 and 18.59 and 18.81
Normalized CT Value (Delta CT) IL1RN—M [2]: 17.70 and 17.88 and 17.80 and 17.59 and 17.72 and 17.52
Normalized CT Value (Delta CT) IL6_M [2]: 25.39 and 25.69 and 25.54 and 25.34 and 25.89 and 25.05
Normalized CT Value (Delta CT) JUN_M [2]: 19.76 and 19.88 and 19.77 and 19.35 and 19.58 and 19.68
Normalized CT Value (Delta CT) MEF2C—M [2]: 20.59 and 19.97 and 20.74 and 19.83 and 20.88 and 19.95
Normalized CT Value (Delta CT) MMP9—M [2]: 14.51 and 14.33 and 14.28 and 14.07 and 14.70 and 14.83
Normalized CT Value (Delta CT) NFKB1—M [2]: 17.37 (2×) and 17.12 and 17.30 and 16.77 and 17.79
Normalized CT Value (Delta CT) PADI4—M [2]: 18.74 and 18.78 and 18.81 and 18.39 and 18.98 and 19.03
Normalized CT Value (Delta CT) PLA2G7—M [2]: 15.31 and 15.29 and 15.04 and 14.93 and 15.33 and 15.36
ABCA1_M Normalized CT Value (Delta CT) (KRN Day 14 Dex, group Average): 18.74
APAF1_M Normalized CT Value (Delta CT) (KRN Day 14 Dex, group Average): 19.47
ARG2_M Normalized CT Value (Delta CT) (KRN Day 14 Dex, group Average): 17.37
CASP1_M Normalized CT Value (Delta CT) (KRN Day 14 Dex, group Average): 19.02
CASP3_M Normalized CT Value (Delta CT) (KRN Day 14 Dex, group Average): 17.77
CCR3_M Normalized CT Value (Delta CT) (KRN Day 14 Dex, group Average): 19.21
CD3Z_M Normalized CT Value (Delta CT) (KRN Day 14 Dex, group Average): 17.27
CD8A_M Normalized CT Value (Delta CT) (KRN Day 14 Dex, group Average): 18.32
CD14_M Normalized CT Value (Delta CT) (KRN Day 14 Dex, group Average): 19.94
CD19_M Normalized CT Value (Delta CT) (KRN Day 14 Dex, group Average): 17.52
CD86_M Normalized CT Value (Delta CT) (KRN Day 14 Dex, group Average): 23.30
CSPG2_M Normalized CT Value (Delta CT) (KRN Day 14 Dex, group Average): 20.94
F3_M Normalized CT Value (Delta CT) (KRN Day 14 Dex, group Average): 23.16
HMOX1_M Normalized CT Value (Delta CT) (KRN Day 14 Dex, group Average): 18.18
HSPA1A—M Normalized CT Value (Delta CT) (KRN Day 14 Dex, group Average): 21.59
ICAM1—M Normalized CT Value (Delta CT) (KRN Day 14 Dex, group Average): 19.42
IFI16—M Normalized CT Value (Delta CT) (KRN Day 14 Dex, group Average): 17.45
IL1B_M Normalized CT Value (Delta CT) (KRN Day 14 Dex, group Average): 14.29
IL10_M Normalized CT Value (Delta CT) (KRN Day 14 Dex, group Average): 25.56
ABCA1_M Normalized CT Value (Delta CT) [3]: 18.85 and 18.64 and 18.31 and 18.46 and 19.46 and 18.75
APAF1_M Normalized CT Value (Delta CT) [3]: 19.78 and 19.62 and 19.16 and 19.37 and 19.43
ARG2_M Normalized CT Value (Delta CT) [3]: 17.30 and 17.84 and 17.05 and 16.89 and 17.70 and 17.43
CASP1_M Normalized CT Value (Delta CT) [3]: 19.00 and 18.87 and 18.99 and 19.15 and 19.23 and 18.90
CASP3_M Normalized CT Value (Delta CT) [3]: 17.98 and 17.63 and 17.87 and 17.16 and 17.93 and 18.06
CCR3_M Normalized CT Value (Delta CT) [3]: 19.56 and 18.34 and 19.23 and 18.45 and 19.90 and 19.79
CD3Z_M Normalized CT Value (Delta CT) [3]: 17.27 and 17.38 and 17.23 and 16.92 and 18.16 and 16.68
CD8A_M Normalized CT Value (Delta CT) [3]: 18.76 and 18.05 and 18.11 and 17.83 and 19.21 and 17.94
CD14_M Normalized CT Value (Delta CT) [3]: 19.50 and 20.04 and 19.93 and 20.22 and 19.63 and 20.29
CD19_M Normalized CT Value (Delta CT) [3]: 17.84 and 17.32 (2×) and 18.33 and 17.39
CD86_M Normalized CT Value (Delta CT) [3]: 23.63 and 23.21 and 23.28 and 22.53 and 23.60 and 23.56
CSPG2_M Normalized CT Value (Delta CT) [3]: 21.74 and 21.15 and 20.43 and 21.79 and 19.79 and 20.71
F3_M Normalized CT Value (Delta CT) [3]: 22.18 and 23.66 and 21.85 and 24.55 and 21.66 and 25.05
HMOX1_M Normalized CT Value (Delta CT) [3]: 17.83 and 18.22 and 17.82 and 18.09 and 18.31 and 18.81
HSPA1A—M Normalized CT Value (Delta CT) [3]: 21.44 and 22.20 and 21.91 and 21.55 and 20.95 and 21.51
ICAM1—M Normalized CT Value (Delta CT) [3]: 19.58 and 19.31 and 19.39 and 19.05 and 19.89 and 19.28
IFI16—M Normalized CT Value (Delta CT) [3]: 17.64 and 17.26 and 17.87 and 16.81 and 18.04 and 17.08
IL1B_M Normalized CT Value (Delta CT) [3]: 14.31 and 14.48 (2×) and 14.19 and 14.00 and 14.25
IL10_M Normalized CT Value (Delta CT) [3]: 25.62 and 25.82 and 25.58 and 25.54 and 25.73 and 25.10
Normalized CT Value (Delta CT) IL1RAP_M [4]: 19.02
Normalized CT Value (Delta CT) IL1RN—M [4]: 18.13
Normalized CT Value (Delta CT) IL6_M [4]: 25.28
Normalized CT Value (Delta CT) JUN_M [4]: 20.06
Normalized CT Value (Delta CT) MEF2C—M [4]: 20.90
Normalized CT Value (Delta CT) MMP9—M [4]: 15.04
Normalized CT Value (Delta CT) NFKB1—M [4]: 17.69
Normalized CT Value (Delta CT) PADI4—M [4]: 18.92
Normalized CT Value (Delta CT) PLA2G7—M [4]: 15.50
Normalized CT Value (Delta CT) IL1RAP_M [5]: 19.08 and 19.03 and 18.86 and 19.29 and 18.97 and 18.89
Normalized CT Value (Delta CT) IL1RN—M [5]: 17.95 (2×) and 18.43 and 17.84 and 18.46 and 18.15
Normalized CT Value (Delta CT) IL6_M [5]: 25.40 and 25.42 and 24.75 and 25.06 and 25.35 and 25.72
Normalized CT Value (Delta CT) JUN_M [5]: 20.06 and 20.45 and 20.53 and 19.72 and 19.52
Normalized CT Value (Delta CT) MEF2C—M [5]: 21.26 (2×) and 20.26 and 21.57 and 20.41 and 20.64
Normalized CT Value (Delta CT) MMP9—M [5]: 15.23 and 14.73 and 15.36 and 15.08 and 14.79
Normalized CT Value (Delta CT) NFKB1—M [5]: 17.74 and 18.12 and 17.25 and 18.27 and 17.28 and 17.46
Normalized CT Value (Delta CT) PADI4—M [5]: 19.00 and 18.36 and 19.37 and 18.97 and 19.13 and 18.69
Normalized CT Value (Delta CT) PLA2G7—M [5]: 15.27 and 15.70 and 15.34 and 15.67 and 15.86 and 15.15
ABCA1_M Normalized CT Value (Delta CT) (KRN Day 21 Dex, group Average): 19.00
APAF1_M Normalized CT Value (Delta CT) (KRN Day 21 Dex, group Average): 19.85
ARG2_M Normalized CT Value (Delta CT) (KRN Day 21 Dex, group Average): 17.59
CASP1_M Normalized CT Value (Delta CT) (KRN Day 21 Dex, group Average): 19.48
CASP3_M Normalized CT Value (Delta CT) (KRN Day 21 Dex, group Average): 18.35
CCR3_M Normalized CT Value (Delta CT) (KRN Day 21 Dex, group Average): 19.66
CD3Z_M Normalized CT Value (Delta CT) (KRN Day 21 Dex, group Average): 17.38
CD14_M Normalized CT Value (Delta CT) (KRN Day 21 Dex, group Average): 20.44
CD19_M Normalized CT Value (Delta CT) (KRN Day 21 Dex, group Average): 17.72
CD86_M Normalized CT Value (Delta CT) (KRN Day 21 Dex, group Average): 23.73
ABCA1_M Normalized CT Value (Delta CT) [6]: 19.52 and 19.29 and 18.57 and 19.09 and 18.61 and 18.92
APAF1_M Normalized CT Value (Delta CT) [6]: 19.76 and 19.88 and 19.81 and 20.29 and 19.46 and 19.93
ARG2_M Normalized CT Value (Delta CT) [6]: 17.45 and 17.78 and 17.56 and 17.29 and 18.09 and 17.36
CASP1_M Normalized CT Value (Delta CT) [6]: 19.34 and 19.90 and 19.57 and 19.28 and 19.50 and 19.31
CASP3_M Normalized CT Value (Delta CT) [6]: 18.21 and 18.52 (2×) and 18.24 and 18.02 and 18.60
CCR3_M Normalized CT Value (Delta CT) [6]: 19.82 and 19.72 and 19.20 and 19.52 and 20.10 and 19.60
CD3Z_M Normalized CT Value (Delta CT) [6]: 17.32 and 17.40 and 17.14 and 17.66 and 17.04 and 17.71
CD14_M Normalized CT Value (Delta CT) [6]: 20.25 and 21.24 and 20.59 and 20.09 and 20.44 and 20.03
CD19_M Normalized CT Value (Delta CT) [6]: 18.44 and 17.98 and 17.64 and 18.11
CD86_M Normalized CT Value (Delta CT) [6]: 23.89 and 23.61 and 23.63 and 24.02 and 23.14 and 24.11
